Where two headings read alike, the source gives them in different places.
Legend:
clinical [1] = conditions: human, in vivo
Excerpt: (§1) All other markers were obtained from commercial sources. Urine and saliva were collected prior to each day's dosing of marker confirming the presence or absence of markers before the experiment started. […] The presence of all 7 markers at day 8 would confirm that all markers were ingested in the previous 7 day one week period.
(§2) Healthy volunteers with no recent exposure to the markers who were not currently taking prescribed medications, OTC medications or vitamins and supplements were chosen. Exposure to the markers more than one month before starting the experiment was allowed and no dietary restrictions were required. Subjects were given a 7 day blister pack with markers sequenced in the order above. Subjects verbally confirmed they understood the urine and saliva collection procedures. Instructions printed on the marker blister pack instructed subjects to collect urine and saliva each morning before they took the daily dose of marker. They were also instructed to take the daily dose of marker close to the same time each day.

clinical [2] = conditions: in vivo
Excerpt: as §1, §2

[3] = human, in vivo
clinical [4] = conditions: human, in vivo, Urine Results
[5] = human, Average of Urine Samples
[6] = human, Subject A, Urine Results
[7] = human, Subject B, Urine Results

## CN(C)CCOC(c1ccccc1)c1ccccc1 [Diphenhydramine]
Clinical [1]
  concentration at 1 day: 0 ng/mL
  concentration at 2 day: 0 ng/mL
  concentration at 3 day: 0 ng/mL
  concentration at 4 day: 0 ng/mL
  concentration at 5 day: 0 ng/mL
  concentration at 6 day: 227 ng/mL
  concentration at 7 day: 0 ng/mL
  concentration at 8 day: 0 ng/mL
  detection of marker in saliva across subjects: not detectable in 2 of the 4 subjects
Clinical [2]; human, 1 day
  Subject C, Urine Results: 0 ng/m
  Subject D, Urine Results: 0 ng/m
Clinical [2]; human, 2 day
  Subject C, Urine Results: 0 ng/m
  Subject D, Urine Results: 0 ng/m
Clinical [2]; human, 3 day
  Subject C, Urine Results: 0 ng/m
  Subject D, Urine Results: 0 ng/m
Clinical [2]; human, 4 day
  Subject C, Urine Results: 0 ng/m
  Subject D, Urine Results: 0 ng/m
Clinical [2]; human, 5 day
  Subject C, Urine Results: 0 ng/m
  Subject D, Urine Results: 0 ng/m
Clinical [2]; human, 6 day
  Subject A, Urine Results: 2020000 ng/mL
  Subject C, Urine Results: 618000 ng/m
  Subject D, Urine Results: 585000 ng/m
Clinical [2]; human, 7 day
  Subject C, Urine Results: 144000 ng/m
  Subject D, Urine Results: 185000 ng/m
Clinical [2]; human, 8 day
  Subject C, Urine Results: 125000 ng/m
  Subject D, Urine Results: 54100 ng/m
Clinical [2]; [5]
  concentration at 1 day: 0 ng/mL
  concentration at 2 day: 0 ng/mL
  concentration at 3 day: 0 ng/mL
  concentration at 4 day: 0 ng/mL
  concentration at 5 day: 0 ng/mL
  concentration at 6 day: 972 µg/mL
  concentration at 7 day: 163000 ng/mL
  concentration at 8 day: 88700 ng/mL
Clinical [2]; [6]
  concentration at 1 day: 0 ng/mL
  concentration at 2 day: 0 ng/mL
  concentration at 3 day: 0 ng/mL
  concentration at 4 day: 0 ng/mL
  concentration at 5 day: 0 ng/mL
Clinical [2]; [7]
  concentration at 1 day: 0 ng/mL
  concentration at 2 day: 0 ng/mL
  concentration at 3 day: 0 ng/mL
  concentration at 4 day: 0 ng/mL
  concentration at 5 day: 0 ng/mL
  concentration at 6 day: 663 µg/mL
  concentration at 7 day: 151000 ng/mL
  concentration at 8 day: 120000 ng/mL
Clinical [2]
  course of urine levels relative to dosing: zero before dosing, peaked the day after dosing and slowly decreased over time
[3]
  course of urine levels relative to dosing: zero before dosing, peaked the day after dosing and slowly decreased over time
Clinical [4]; Subject A
  concentration at 1 day: 0 ng/mL
  concentration at 2 day: 0 ng/mL
  concentration at 3 day: 0 ng/mL
  concentration at 4 day: 0 ng/mL
  concentration at 5 day: 0 ng/mL
  concentration at 6 day: 481000 ng/mL
Clinical [4]; Subject B
  concentration at 1 day: 0 ng/mL
  concentration at 2 day: 0 ng/mL
  concentration at 3 day: 0 ng/mL
  concentration at 4 day: 0 ng/mL
  concentration at 5 day: 0 ng/mL
  concentration at 6 day: 0 ng/mL
  concentration at 7 day: 0 ng/mL
  concentration at 8 day: 0 ng/mL
Clinical [4]; Subject C
  concentration at 1 day: 0 ng/mL
  concentration at 2 day: 0 ng/mL
  concentration at 3 day: 0 ng/mL
  concentration at 4 day: 0 ng/mL
  concentration at 5 day: 0 ng/mL
  concentration at 6 day: 151000 ng/mL
  concentration at 7 day: 214000 ng/mL
  concentration at 8 day: 8840 ng/mL
Clinical [4]; Subject D
  concentration at 3 day: 0 ng/mL
  concentration at 4 day: 0 ng/mL
  concentration at 5 day: 0 ng/mL
  concentration at 6 day: 684000 ng/mL
  concentration at 8 day: 75300 ng/mL

## NC(N)=Nc1nc(CSCCC(N)=NS(N)(=O)=O)cs1 [Famotidine]
Clinical [1]
  concentration at 1 day: 0 ng/mL
  concentration at 2 day: 0 ng/mL
  concentration at 3 day: 0 ng/mL
  concentration at 4 day: 0 ng/mL
  concentration at 5 day: 5.71 ng/mL
  concentration at 6 day: 0.34 ng/mL
  concentration at 7 day: 0 ng/mL
  concentration at 8 day: 0 ng/mL
Clinical [2]; human, 1 day
  Subject C, Urine Results: 0 ng/m
  Subject D, Urine Results: 0 ng/m
Clinical [2]; human, 2 day
  Subject C, Urine Results: 0 ng/m
  Subject D, Urine Results: 0 ng/m
Clinical [2]; human, 3 day
  Subject C, Urine Results: 0 ng/m
  Subject D, Urine Results: 0 ng/m
Clinical [2]; human, 4 day
  Subject C, Urine Results: 0 ng/m
  Subject D, Urine Results: 0 ng/m
Clinical [2]; human, 5 day
  Subject C, Urine Results: 968 ng/m
  Subject D, Urine Results: 3820 ng/m
Clinical [2]; human, 6 day
  Subject C, Urine Results: 165 ng/m
  Subject D, Urine Results: 260 ng/m
Clinical [2]; human, 7 day
  Subject C, Urine Results: 122 ng/m
  Subject D, Urine Results: 37.3 ng/m
Clinical [2]; human, 8 day
  Subject C, Urine Results: 78.9 ng/m
  Subject D, Urine Results: 19.4 ng/m
Clinical [2]; [5]
  concentration at 1 day: 0 ng/mL
  concentration at 2 day: 0 ng/mL
  concentration at 3 day: 0 ng/mL
  concentration at 4 day: 0 ng/mL
  concentration at 5 day: 1560 ng/mL
  concentration at 6 day: 0.203 µg/mL
  concentration at 7 day: 64.5 ng/mL
  concentration at 8 day: 43.2 ng/mL
Clinical [2]; [6]
  concentration at 1 day: 0 ng/mL
  concentration at 2 day: 0 ng/mL
  concentration at 3 day: 0 ng/mL
  concentration at 4 day: 0 ng/mL
Clinical [2]; [7]
  concentration at 1 day: 0 ng/mL
  concentration at 2 day: 0 ng/mL
  concentration at 3 day: 0 ng/mL
  concentration at 4 day: 0 ng/mL
Clinical [2]
  course of urine levels relative to dosing: zero before dosing, peaked the day after dosing and slowly decreased over time
[3]
  course of urine levels relative to dosing: zero before dosing, peaked the day after dosing and slowly decreased over time
Clinical [4]; Subject A
  concentration at 1 day: 0 ng/mL
  concentration at 2 day: 0 ng/mL
  concentration at 3 day: 0 ng/mL
  concentration at 4 day: 0 ng/mL
Clinical [4]; Subject B
  concentration at 1 day: 0 ng/mL
  concentration at 2 day: 0 ng/mL
  concentration at 3 day: 0 ng/mL
  concentration at 4 day: 0 ng/mL
Clinical [4]; Subject C
  concentration at 1 day: 0 ng/mL
  concentration at 2 day: 0 ng/mL
  concentration at 3 day: 0 ng/mL
  concentration at 4 day: 0 ng/mL
  concentration at 5 day: 3830 ng/mL
  concentration at 6 day: 429 ng/mL
  concentration at 7 day: 390 ng/mL
  concentration at 8 day: 139 ng/mL
Clinical [4]; Subject D
  concentration at 3 day: 0 ng/mL
  concentration at 4 day: 0 ng/mL
  concentration at 5 day: 5050 ng/mL
  concentration at 6 day: 1670 ng/mL
  concentration at 8 day: 27.8 ng/mL

## O=C1O[C@H]([C@@H](O)CO)C(O)=C1O [Ascorbic Acid]
Clinical [1]
  concentration at 1 day: 30.7 ng/mL
  concentration at 2 day: 33.6 ng/mL
  concentration at 3 day: 32.8 ng/mL
  concentration at 4 day: 33.3 ng/mL
  concentration at 5 day: 23.8 ng/mL
  concentration at 6 day: 36.2 ng/mL
  concentration at 7 day: 36.8 ng/mL
  concentration at 8 day: 27 ng/mL
Clinical [2]; human, 1 day
  Subject C, Urine Results: 1290 ng/m
  Subject D, Urine Results: 4167 ng/m
Clinical [2]; human, 2 day
  Subject C, Urine Results: 2106 ng/m
  Subject D, Urine Results: 2789 ng/m
Clinical [2]; human, 3 day
  Subject C, Urine Results: 1947 ng/m
  Subject D, Urine Results: 3626 ng/m
Clinical [2]; human, 4 day
  Subject C, Urine Results: 1892 ng/m
  Subject D, Urine Results: 3426 ng/m
Clinical [2]; human, 5 day
  Subject C, Urine Results: 2503 ng/m
  Subject D, Urine Results: 2268 ng/m
Clinical [2]; human, 6 day
  Subject C, Urine Results: 1812 ng/m
  Subject D, Urine Results: 3024 ng/m
Clinical [2]; human, 7 day
  Subject C, Urine Results: 1751 ng/m
  Subject D, Urine Results: 3908 ng/m
Clinical [2]; human, 8 day
  Subject C, Urine Results: 2020 ng/m
  Subject D, Urine Results: 2894 ng/m
Clinical [2]; [5]
  concentration at 1 day: 1960 ng/mL
  concentration at 2 day: 2100 ng/mL
  concentration at 3 day: 2260 ng/mL
  concentration at 4 day: 2660 ng/mL
  concentration at 5 day: 2030 ng/mL
  concentration at 6 day: 1.96 µg/mL
  concentration at 7 day: 2560 ng/mL
  concentration at 8 day: 2100 ng/mL
Clinical [2]; [6]
  concentration at 7 day: 2800 ng/mL
Clinical [2]
  course of urine levels relative to dosing: did not differ significantly from baseline levels
[3]
  course of urine levels relative to dosing: did not differ significantly from baseline levels
Clinical [4]; Subject A
  concentration at 7 day: 2920 ng/mL
Clinical [4]; Subject C
  concentration at 1 day: 1870 ng/mL
  concentration at 2 day: 2490 ng/mL
  concentration at 3 day: 4540 ng/mL
  concentration at 4 day: 2520 ng/mL
  concentration at 5 day: 5290 ng/mL
  concentration at 6 day: 1040 ng/mL
  concentration at 7 day: 1840 ng/mL
  concentration at 8 day: 1610 ng/mL
Clinical [4]; Subject D
  concentration at 3 day: 4900 ng/mL
  concentration at 4 day: 4930 ng/mL
  concentration at 5 day: 5020 ng/mL
  concentration at 6 day: 4400 ng/mL
  concentration at 8 day: 4320 ng/mL
